From publication PMC3390344, “Antibacterial Activity and Mechanism of a Scorpion Venom Peptide Derivative In Vitro and In Vivo” (PLoS ONE, 2012)
Values after ≈ are worked out from the molar mass of the structure shown. Read-outs that look alike come from different tables or passages of the source.

Assays:
Format in all cases: cell-based
[1] = system: methicillin-resistant coagulase-negative Staphylococcus (MRCNS) P1369; test: microbe, parasite or virus in culture; details: Staphylococcus
Experimental: (§1) The MIC was determined via a microdilution assay in 96-well microtiter plates according to the broth microdilution guideline of Clinical and Laboratory Standards Institute (CLSI).

[2] = system: methicillin-resistant S. aureus (MRSA) P1374; test: microbe, parasite or virus in culture
Experimental: (§2) Clinical isolates were obtained from the 302nd military hospital of Beijing, China, including penicillin-resistant S. aureus (PRSA) P1383, penicillin-resistant S. epidermidis (PRSE) P1389, methicillin-resistant S. aureus (MRSA) P1381, P1386 and P1374, methicillin-resistant coagulase-negative Staphylococcus (MRCNS) P1369, and penicillin-sensitive S. epidermidis (PSSE) P1111.
as §1

[3] = system: methicillin-resistant S. aureus (MRSA) P1381; test: microbe, parasite or virus in culture
Experimental: as §2, §1

[4] = system: methicillin-resistant S. aureus (MRSA) P1386; test: microbe, parasite or virus in culture
Experimental: as §2, §1

[5] = system: penicillin-resistant S. aureus (PRSA) P1383; test: microbe, parasite or virus in culture
Experimental: as §2, §1

[6] = system: penicillin-resistant S. epidermidis (PRSE) P1389; test: microbe, parasite or virus in culture
Experimental: as §2, §1

[7] = system: penicillin-sensitive S. epidermidis (PSSE) P1111; test: microbe, parasite or virus in culture
Experimental: as §2, §1

S. aureus AB94004 = test: Enzyme release assay (catalase); details: S. aureus AB94004, 37°C; 0.9% saline negative control; Figure 4C
Experimental: (§3) Figure 4 Secondary structure and enzyme release assay of Kn2-7. (A) and (B) Secondary structure analysis of the Kn2-7 and BmKn2 peptides. (A) Circular dichroism spectra of 0.1 mg/mL of Kn2-7 in water, 30% TFE/H2O or 70% TFE/H2O. (B) Circular dichroism spectra of 0.1 mg/mL of BmKn2 in water, 30% TFE/H2O or 70% TFE/H2O. (C) and (D) Enzyme release assay. (C) S. aureus AB94004 treated with Kn2-7 or BmKn2 was harvested, and the catalase activities of the supernatants were measured; 0.9% saline was used as the negative control, and ampicillin sodium was used as the antibiotic control. (D) E. coli AB94012 treated with Kn2-7 or BmKn2 was harvested, and the catalase activities in the supernatants were measured; 0.9% saline was used as the negative control, and kanamycin was used as the antibiotic control.
(§4) Bacterial suspensions and serial-diluted peptides were mixed at a ratio of 4∶1 in different tubes with a final volume of 2 ml. The mixtures were then incubated at 37°C with continuous shaking. At each time point, 200 µl of the treated bacterial suspension was transferred to sterilized tubes. After centrifugation, the supernatants were transferred to a sterilized 1.5-ml tube, and catalase activity was measured with a Catalase Assay Kit (Beyotime, Jiangsu, China) using the method for measuring peroxidase activity.

E. coli AB94012 [8] = test: Growth inhibitory assay (growth curves); details: at a concentration of 6.25 µg/mL; Figure 2C
Experimental: Figure 2 Gowth inhibitory activities of Kn2-7. (A) Growth curves of S. aureus AB94004 treated with Kn2-7, BmKn2 or antibiotics. (B) Growth curves of MRSA P1386 treated with Kn2-7, BmKn2 or antibiotics. (C) Growth curves of E. coli AB94012 treated with Kn2-7, BmKn2 or antibiotics.
The time growth curves of S. aureus and MRSA treated with BmKn2 or its derivatives were determined based on measurements taken at 630 nm at each time point. Different concentrations of peptide were added to the tested strains, which were cultured in 96-well plates using the same method as was used for determining the MIC.

E. coli AB94012 [9] = test: Enzyme release assay (catalase); details: E. coli AB94012, 37°C; 0.9% saline negative control; Figure 4D
Experimental: as §3, §4

[10] = Staphylococcus epidermidis, read-out: MIC

Compound	MIC [1] [µg/mL]	MIC ([2]; Staphylococcus aureus, MRSA) [µg/mL]	MIC ([3]; Staphylococcus aureus, MRSA) [µg/mL]	MIC ([4]; Staphylococcus aureus, MRSA) [µg/mL]	MIC ([5]; Staphylococcus aureus) [µg/mL]	MIC ([6]; Staphylococcus epidermidis) [µg/mL]	MIC [7, 10] [µg/mL]	also measured
CO/N=C(\C(=O)N[C@@H]1C(=O)N2C(C(=O)O)=C(COC(C)=O)CS[C@H]12)c1csc(N)n1 [Cefotaxime]	400 (≈ 878 µM)	400 (≈ 878 µM)	400 (≈ 878 µM)	100 (≈ 220 µM)	6.25 (≈ 13.7 µM)	3.13 (≈ 6.87 µM)	6.25 (≈ 13.7 µM)	–
CN[C@H](CC(C)C)C(=O)N[C@H]1C(=O)N[C@@H](CC(N)=O)C(=O)N[C@H]2C(=O)N[C@H]3C(=O)N[C@H](C(=O)N[C@H](C(=O)O)c4cc(O)cc(O)c4-c4cc3ccc4O)[C@H](O)c3ccc(c(Cl)c3)Oc3cc2cc(c3O[C@@H]2O[C@H](CO)[C@@H](O)[C@H](O)[C@H]2O[C@H]2C[C@](C)(N)[C@H](O)[C@H](C)O2)Oc2ccc(cc2Cl)[C@H]1O [Vancomycin]	6.25 (≈ 4.31 µM)	6.25 (≈ 4.31 µM)	3.13 (≈ 2.16 µM)	3.13 (≈ 2.16 µM)	6.25 (≈ 4.31 µM)	6.25 (≈ 4.31 µM)	3.13 (≈ 2.16 µM)	–
CC1(C)S[C@@H]2[C@H](NC(=O)[C@H](N)c3ccccc3)C(=O)N2[C@H]1C(=O)O [ampicillin, reference compound]	–	–	–	–	–	–	–	Catalase activity of the supernatant over time (S. aureus AB94004): increasing catalase activity over time
NC[C@H]1O[C@H](O[C@H]2[C@H](O)[C@@H](O[C@H]3O[C@H](CO)[C@@H](O)[C@H](N)[C@H]3O)[C@H](N)C[C@@H]2N)[C@H](O)[C@@H](O)[C@@H]1O [kanamycin, reference compound]	–	–	–	–	–	–	–	Growth inhibition of E. coli AB94012 (growth curve) (E. coli AB94012 [8]): inhibited the growth of E. coli AB94012; Catalase activity of the supernatant over time (E. coli AB94012 [9]): increasing catalase activity over time
Penicillin	–	–	–	–	–	–	–	MIC ([2]; P1374, methicillin resistant (MRSA) clinical isolate, repeated at least three times): 5000 µg/mL; MIC ([3]; P1381, methicillin resistant (MRSA) clinical isolate, repeated at least three times): 5000 µg/mL; MIC ([4]; P1386, methicillin resistant (MRSA) clinical isolate, repeated at least three times): 10000 µg/mL; MIC ([5]; P1383, penicillin resistant (PRSA) clinical isolate, repeated at least three times): 10000 µg/mL; MIC ([6]; P1389, penicillin resistant (PRSE) clinical isolate, repeated at least three times): 10000 µg/mL; MIC ([7]; P1111, penicillin sensitive (PSSE) clinical isolate, repeated at least three times): 25 µg/mL
